# Structures can show the parent of a compound that is named as a salt.
# Key:
# pKa by titration = type: physicochemical; conditions: phenolic hydroxyl, data not shown for S9, S10, read-out: pKa
# Text: One of the questions that emerges from the data is why aromatic sulfoniums as structurally similar as S5, S9, and S10 provide different responses when coapplied with TQS. Indeed, compounds S5 and S9 virtually overlap in their best docked poses (Supplementary Figure S1), but the α7 response of S9 and TQS was dramatically greater than that of S5 and TQS (p < 0.001, Table S1). The formation of cation–pi interactions is a key feature of the binding of nicotinic orthosteric ligands, and the electronic distribution of the cation can be compared qualitatively in a series of compounds using molecular electrostatic potentials (MEPs). Analysis of the MEPs shown in Figure 9 reveal that the substituents on the benzene ring can modulate the intensity of the positive charge on the sulfonium center. Compound S5, for instance, has two hydroxyl groups which are strongly electron donating, and in comparison to compound S9, which has only one hydroxyl group, the intensity of the positive charge is […]. Another factor may be that a lone pair on the ortho hydroxyl substituent is donating electron density through space to the neighboring sulfonium, redistributing its positive charge. Compound S10 also has an ortho hydroxyl group, but unlike compound S5, compound S10 also has a nitro group, which is a strong electron-withdrawing group that may offset the electron-donating impact of the ortho hydroxyl group. Inspection of the MEP surface shown in Figure 9 does indicate that, relative to S5, the S10 sulfonium bears greater positive electrostatic potential. Given that compounds such as para-nitrophenol are acidic, with a pKa of ~7 for the phenolic hydroxyl, we also considered whether the deprotonated forms of S5, S9, and S10 might be accessible at the pH of our experiments.
# Thus, all three compounds have varying proportions of the phenolic OH in the phenoxide form at the pH of Ringers solution used in the experiments. […] Future work on analogs of these compounds may be focused on substituents that are non-ionizable, and thus preserve a positive molecular charge derived from the sulfonium center.
# α7 nAChR [1] = target: T1, α7 nAChR (Homo sapiens, UniProt P36544); experiment: α7 concentration-response on co-application with 10 µM PNU-120596; type: cell-based; conditions: peak currents, co-applied with 10 µM PNU-120596, Hill fit; for IMax (PNU Activation): approximation only
# T1 construct: expressed in transfected cells; host or cells: Xenopus laevis oocytes (injected RNA)
# T1 sequence (P36544 23-502): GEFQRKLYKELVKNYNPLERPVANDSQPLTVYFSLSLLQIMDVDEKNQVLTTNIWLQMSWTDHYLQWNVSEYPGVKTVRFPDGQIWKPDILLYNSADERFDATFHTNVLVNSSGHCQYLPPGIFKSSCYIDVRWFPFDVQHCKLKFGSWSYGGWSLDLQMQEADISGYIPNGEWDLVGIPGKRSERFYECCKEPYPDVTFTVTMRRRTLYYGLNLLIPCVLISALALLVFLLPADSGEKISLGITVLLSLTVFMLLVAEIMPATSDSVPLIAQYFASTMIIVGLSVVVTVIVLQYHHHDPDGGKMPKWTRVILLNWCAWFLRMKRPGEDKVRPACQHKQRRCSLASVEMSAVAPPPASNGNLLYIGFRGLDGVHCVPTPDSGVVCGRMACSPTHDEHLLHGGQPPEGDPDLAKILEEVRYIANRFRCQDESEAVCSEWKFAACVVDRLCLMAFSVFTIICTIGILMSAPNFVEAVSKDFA
# Experimental: (§1) Compounds were co-applied at a concentration of 100 µM with 30 µM racemic TQS (Figure 3A). All compounds except S4, S5, and S8 gave large responses when co-applied with TQS, consistent with silent agonism of α7 (see Table S1 for ANOVA). Active compounds were also evaluated across a range of concentrations with the alternative PAM, PNU-120596 (Figure 3B). The curve-fit values for Imax (Table 1) should be taken only as approximation of the relative efficacies of the compounds, due to the large variability frequently observed in PNU-120596-potentiated responses, as evidenced by the large SEMs of the responses obtained with high concentrations.
# (§2) Figure 3 Responses of α7 nAChR to sulfonium compounds coapplied with PAMs. (A) Potentiation of α7 responses with 30 µM racemic TQS. Shown are the average net-charge responses of seven or eight oocytes ± SEM. (B) Concentration-response studies of peak currents generated by compounds that gave positive responses with TQS, coapplied with 10 µM PNU-120596. Each point represents the average (±SEM) of at least four oocytes.
# (§3) Experiments were conducted using OpusXpress 6000A (Molecular Devices, Union City, CA, USA). Both the voltage and current electrodes were filled with 3 M KCl. Oocytes were voltage-clamped at −60 mV at room temperature (24 °C). The oocytes were bath-perfused with Ringer’s solution (115 mM NaCl, 2.5 mM KCl, 1.8 mM CaCl2, 10 mM HEPES, and 1 μM atropine, pH 7.2) at 2 mL/min for α7 receptors, or 4 mL/min for heteromeric nAChR. To evaluate the effects of experimental compounds, responses were compared to control ACh-evoked responses, defined as the average of two initial applications of ACh made before test applications. ACh control concentrations were 60 µM for α7 receptors; 100 µM for α4(3)β2(2) and α3β4 receptors; 30 µM for α4β2α6β2β3 and muscle-type (αβ1εδ) receptors; and 10 µM for α4(3)β2(2) and α4(2)β2(2)α5 receptors.
# (§4) Solutions were applied from 96-well plates via disposable tips. Drug applications were 12 s in duration, followed by 181 s washout periods for α7 receptors, or 6 s in duration followed by 301 s washout periods for heteromeric nAChR. The responses were calculated as both peak current amplitudes and net charge, as previously described. Data were collected at 50 Hz, filtered at 20 Hz for α7 receptors or filtered at 5 Hz for heteromeric nAChR, and analyzed by Clampfit (Molecular Devices, San Jose, CA, USA) and Excel (Microsoft, Redmond, WA, USA). Data were expressed as means ± SEM from at least four oocytes for each experiment and plotted with Kaleidagraph 4.5.2 (Abelbeck Software, Reading, PA, USA). Multi-cell averages were calculated for comparisons of complex responses. Averages of the normalized data were calculated for each of the 10,322 points in each of the 206.44 s traces (acquired at 50 Hz), as well as the standard errors for those averages.
# α7 nAChR [2] = target: T1, α7 nAChR; experiment: α7 responses on co-application with the type II PAM TQS (silent agonism); type: cell-based; conditions: for α7 functional classification (silent agonist / inactive): inactive alone, active with a PAM = silent agonist
# Experimental: as §1, §2
# The human nAChR clones were obtained from Jon Lindstrom (University of Pennsylvania, Philadelphia, PA, USA). Mouse muscle subunit clones were obtained from Jim Boulter (Salk Institute, La Jolla, CA, USA) and Paul Gardner (Dartmouth, Hanover, NH, USA). The human resistance-to-cholinesterase 3 (RIC3) clone was obtained from Millet Treinin (Hebrew University, Jerusalem, Israel) and co-injected with α7 to improve the level and speed of α7 receptor expression without affecting the pharmacological properties of the receptors. Subsequent to linearization and purification of the plasmid DNAs, RNAs were prepared using the mMessage mMachine in vitro RNA transcription kit (Ambion, Austin, TX, USA).
# as §3, §4
Compound,pKa (pKa by titration),IMax (PNU Activation) (α7 nAChR [1]),"relative activity as α7 silent agonist / desensitizer (rank order) (α7 nAChR [2]; 100 µM with 30 µM TQS, Figure 3A)",α7 functional classification (silent agonist / inactive) (α7 nAChR [2]),"response when co-applied with TQS (α7 nAChR [2]; 100 µM compound with 30 µM racemic TQS, net charge)",EC50 (α7 nAChR [1]; read-out: EC50 (PNU Activation)) [µM]
"C[S+](C)c1ccc(O)cc1 [Compound S9, (4-hydroxyphenyl)dimethylsulfonium methyl sulfate]",~7.3,3.98 ± 0.14,most desensitizing,silent agonist activity,–,–
"C[S+](C)C.[I-] [Compound S1, trimethylsulfonium iodide]",–,9.1 ± 0.05,–,–,produced potentiated α7 currents,–
"C[S+](C)c1cc([N+](=O)[O-])ccc1O.[Br-] [Compound S10, (2-hydroxy-5-nitrophenyl)dimethylsulfonium bromide]",~5,4.6 ± 0.1,–,silent agonist activity,–,45.5 ± 50.6

# Source: article PMC8464850, “Sulfonium Ligands of the α7 nAChR” (Molecules, 2021)
